Laboratory results: the supplement of paper PMC10307832

Legend:
Assay in all cases: relative viability (nuclei count vs DMSO), 5 days (fraction); higher = more cells survive
[1] = compound: O=C(Nc1cc(C(F)(F)F)cc(C(F)(F)F)c1)c1cc(Cl)ccc1O [IMD-0354] + Cc1nc(Nc2ncc(C(=O)Nc3c(C)cccc3Cl)s2)cc(N2CCN(CCO)CC2)n1 [Dasatinib] (partner 0.075 µM)
Summary of the method: (§1)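 For relative viability, nuclei counts in treated wells were divided by those in vehicle wells. Lung cancer cell lines had been pin-tool dosed in 1536-well plates the day after seeding and cultured for 5 days, then fixed and stained in one step (final 0.05% Triton X-100, 1% formaldehyde, 1 ug/ml Hoechst) and imaged at 4×. Doses were one drug alone or a fixed anchor-drug dose plus five library-drug doses (not always all listed) in √10 steps, and values are duplicate-plate medians.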

[2] = compound: Cc1cnc(CNC(=O)c2c(=O)c3ccc(N4CCCN(C)CC4)nc3n3c2sc2ccccc23)cn1 [CX-5461] + Nc1ncn([C@H]2C[C@H](O)[C@@H](CO)O2)c(=O)n1 [Decitabine] (partner 2 µM)
Summary of the method: as §1

[3] = compound: O=C(Nc1cc(C(F)(F)F)cc(C(F)(F)F)c1)c1cc(Cl)ccc1O [IMD-0354] + CCNC(=O)c1noc(-c2cc(C(C)C)c(O)cc2O)c1-c1ccc(CN2CCOCC2)cc1 [Luminespib] (partner 0.01 µM)
Summary of the method: as §1

[4] = compound: Cc1cnc(CNC(=O)c2c(=O)c3ccc(N4CCCN(C)CC4)nc3n3c2sc2ccccc23)cn1 [CX-5461] + CC(C)C[C@H](NC(=O)[C@H](Cc1ccccc1)NC(=O)c1cnccn1)B(O)O [Bortezomib] (partner 0.002 µM)
Summary of the method: as §1

Cell Line | relative viability ([1]; first compound 0.04 µM) | relative viability ([1]; first compound 0.1265 µM) | relative viability ([1]; first compound 0.4 µM) | relative viability ([1]; first compound 1.265 µM) | relative viability ([1]; first compound 4 µM) | relative viability ([2]; first compound 0.01 µM) | relative viability ([2]; first compound 0.03162 µM) | relative viability ([2]; first compound 0.1 µM) | relative viability ([2]; first compound 0.3162 µM) | relative viability ([2]; first compound 1 µM) | relative viability ([3]; first compound 0.04 µM) | relative viability ([3]; first compound 0.1265 µM) | relative viability ([3]; first compound 0.4 µM) | relative viability ([3]; first compound 1.265 µM) | relative viability ([3]; first compound 4 µM) | relative viability ([4]; first compound 0.01 µM) | relative viability ([4]; first compound 0.03162 µM) | relative viability ([4]; first compound 0.1 µM) | relative viability ([4]; first compound 0.3162 µM) | relative viability ([4]; first compound 1 µM)
HCC-15 | 0.613 | 0.571 | 0.375 | 0.094 | 0.164 | 0.684 | 0.654 | 0.605 | 0.69 | 0.354 | 0.236 | 0.257 | 0.275 | 0.104 | 0.0925 | 1.04 | 1.16 | 1.02 | 1.03 | 0.731
HCC-827 | 0.357 | 0.301 | 0.348 | 0.235 | 0.248 | 0.339 | 0.337 | 0.342 | 0.282 | 0.3 | 0.686 | 0.589 | 0.589 | 0.235 | 0.129 | 1.01 | 1.06 | 1.02 | 1.06 | 0.997
HOP-62 | 0.629 | 0.637 | 0.441 | 0.213 | 0.164 | 0.243 | 0.23 | 0.171 | 0.191 | 0.207 | 0.998 | 0.864 | 0.53 | 0.509 | 0.166 | 0.726 | 0.84 | 0.896 | 0.909 | 0.424
LC-2-ad | 0.644 | 0.486 | 0.253 | 0.146 | 0.126 | 0.805 | 0.867 | 0.809 | 0.795 | 0.79 | 1.01 | 0.87 | 0.674 | 0.312 | 0.226 | 0.967 | 1.09 | 1.06 | 1.06 | 0.638
LCLC-97TM1 | 0.881 | 0.77 | 0.386 | 0.238 | 0.145 | 0.225 | 0.233 | 0.238 | 0.208 | 0.229 | 0.735 | 0.705 | 0.529 | 0.251 | 0.148 | 0.69 | 0.34 | 0.457 |  | 0.119
LCLC-103H | 0.42 | 0.487 | 0.311 | 0.232 | 0.201 | 0.684 | 0.743 | 0.705 | 0.766 | 0.707 | 1.1 | 0.894 | 0.744 | 0.432 | 0.222 | 1.1 | 1.13 | 1.11 | 1.02 | 1.07
LOU-NH91 | 0.616 | 0.555 | 0.258 | 0.102 | 0.205 | 0.844 | 0.866 | 0.79 | 0.613 | 0.783 | 0.348 | 0.334 | 0.32 | 0.176 | 0.213 | 0.509 | 0.492 | 0.485 |  | 0.452
LU99A | 0.573 | 0.648 | 0.445 | 0.113 | 0.19 | 0.925 | 0.958 | 0.923 | 0.594 | 0.79 | 0.214 | 0.264 | 0.221 | 0.196 | 0.201 | 1.1 | 1.02 | 0.977 | 0.868 | 0.417
